Source: patent US8173378B2, “Methods of using an alpha-1-adrenergic receptor having altered ligand affinity” (Pharmacome LLC, priority 2007, dated 2012)

Columns and labels:
[1] = target: T1, α1L-adrenergic receptor (α1A-adrenergic receptor / CRELD1α complex) in α1L cells (Homo sapiens, UniProt P35348); assay: Whole-cell [3H]-silodosin binding in α1L cells (CHO-K1 coexpressing ADRA1A and CRELD1α); conditions: for sensitivity of receptors in α1L cells (in words): whole-cell competition binding
T1 construct: the coding region of the ADRA1A gene was subcloned into the EcoRI restriction enzyme site of the multicloning site A of the pIRES; expressed in transfected cells
T1 sequence (P35348 1-466): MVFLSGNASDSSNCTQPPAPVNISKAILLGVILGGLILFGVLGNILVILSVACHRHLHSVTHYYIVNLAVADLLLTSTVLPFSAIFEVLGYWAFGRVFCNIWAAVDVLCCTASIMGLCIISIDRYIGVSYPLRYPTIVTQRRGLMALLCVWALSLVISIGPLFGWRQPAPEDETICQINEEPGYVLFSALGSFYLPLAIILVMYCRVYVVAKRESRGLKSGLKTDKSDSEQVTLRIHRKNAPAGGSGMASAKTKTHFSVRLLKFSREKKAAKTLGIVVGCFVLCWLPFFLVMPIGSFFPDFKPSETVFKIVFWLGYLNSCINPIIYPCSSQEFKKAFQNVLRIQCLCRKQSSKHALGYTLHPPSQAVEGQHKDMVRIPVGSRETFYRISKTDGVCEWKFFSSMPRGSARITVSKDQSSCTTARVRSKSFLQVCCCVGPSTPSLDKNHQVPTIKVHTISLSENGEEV
T1 sequence (Q96HD1 30-420 partner): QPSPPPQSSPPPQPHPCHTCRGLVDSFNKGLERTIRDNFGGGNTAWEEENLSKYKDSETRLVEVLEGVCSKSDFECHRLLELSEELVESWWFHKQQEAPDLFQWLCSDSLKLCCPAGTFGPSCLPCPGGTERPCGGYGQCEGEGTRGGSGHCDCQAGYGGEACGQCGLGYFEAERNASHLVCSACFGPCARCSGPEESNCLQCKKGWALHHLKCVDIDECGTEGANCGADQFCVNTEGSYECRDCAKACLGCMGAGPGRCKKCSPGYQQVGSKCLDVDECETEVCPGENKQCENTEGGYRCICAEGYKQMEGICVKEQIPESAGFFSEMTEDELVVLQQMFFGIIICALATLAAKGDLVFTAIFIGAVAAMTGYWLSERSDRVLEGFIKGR
Procedure: (§1) The vector was amplified/purified in a conventional method, and then transfected into CHO-K1 cells, which are cells of Chinese Hamster ovarian origin, with Lipofectamine 2000 (Invitrogen Corporation) according to the manufacturer's protocol. Two days after the transfection, 1200 μg/ml of the antibiotic Geneticin (G418) were added to the DMEM culture medium. […] The G418-resistant cells were diluted, suspended, and injected dividedly into a 96-well plate so that an average of 0.5 cells was put in per well, and a single colony was chosen. This operation was repeated three times, whereby a stable clone (au cells) having coexpressed the ADRA1A gene and the CREDL1α gene was produced. Further, as control groups, the cells (α1A cells) having stably expressed only the ADRA1A gene and the cells (CREDL1α cells) having stably expressed only the CREDL1α gene were produced.
The stable clone was studied by a pharmacological binding method with [^3H]-silodosin, which is a radioligand. An experiment was conducted using a whole-cell binding method. That is, cells were scattered two to three days before the experiment so that they are semi-confluent, washed twice with ice-cold PBS, and then scraped by a scraper. The cells thus collected were suspended again in a Krebs-HEPES solution, and then incubated at 4° C. for four hours together with [^3H]-silodosin and another drug as needed. Thereafter, the cells were filtered/washed by a Whatmann GC/F filter pretreated with polyethylene imine, and the radioactivity was measured by a liquid scintillation counter. The non-specific binding was evaluated as binding in the presence of 30 μM phenotolamine.
The binding of [^3H]-silodosin of various concentrations (30 to 1000 pM) to the α1L cells was examined (FIG. 1).
Silodosin is known to bind selectively to the α1A- and α1L-subtypes with a high affinity. […] The α1A cells were used as control cell line. [^3H]-silodosin is known as a selective antagonist of α1A- and α1L-subtypes both.

α1B-adrenergic receptor = target: T2, α1B-adrenergic receptor (Homo sapiens, UniProt P35368); conditions: α1B subtype; cited from earlier work
T2 sequence (P35368 1-520): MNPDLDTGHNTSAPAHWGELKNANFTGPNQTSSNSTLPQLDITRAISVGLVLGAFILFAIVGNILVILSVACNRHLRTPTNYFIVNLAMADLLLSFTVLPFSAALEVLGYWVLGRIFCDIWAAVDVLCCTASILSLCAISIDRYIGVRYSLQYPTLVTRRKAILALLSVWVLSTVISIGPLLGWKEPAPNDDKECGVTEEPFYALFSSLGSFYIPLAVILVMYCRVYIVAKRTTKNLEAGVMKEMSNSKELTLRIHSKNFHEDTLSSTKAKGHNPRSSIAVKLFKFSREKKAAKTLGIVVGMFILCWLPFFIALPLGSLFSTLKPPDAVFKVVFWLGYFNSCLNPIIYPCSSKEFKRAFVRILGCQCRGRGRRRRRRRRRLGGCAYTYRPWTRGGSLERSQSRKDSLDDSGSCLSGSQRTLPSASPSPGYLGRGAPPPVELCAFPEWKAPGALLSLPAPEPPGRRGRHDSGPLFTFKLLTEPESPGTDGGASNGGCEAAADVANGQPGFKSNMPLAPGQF

[2] = target: T3, α1A-adrenergic receptor in α1A cells (Homo sapiens, UniProt P35348); assay: Whole-cell [3H]-silodosin binding in α1A cells (CHO-K1 expressing only ADRA1A)
T3 construct: the coding region of the ADRA1A gene was subcloned into the EcoRI restriction enzyme site of the multicloning site A of the pIRES; expressed in transfected cells
T3 sequence (P35348 1-466): T1 sequence (P35348 1-466)
Procedure: as §1
The stable clone was studied by a pharmacological binding method with [^3H]-silodosin, which is a radioligand. An experiment was conducted using a whole-cell binding method. […] Thereafter, the cells were filtered/washed by a Whatmann GC/F filter pretreated with polyethylene imine, and the radioactivity was measured by a liquid scintillation counter. The non-specific binding was evaluated as binding in the presence of 30 μM phenotolamine. […]

[3] = target: T4, α1L-adrenergic receptors in human prostate tissue segments (Homo sapiens, UniProt P35348); assay: [3H]-silodosin binding in human prostate tissue segments
T4 construct: from tissue; host or cells: human prostate tissue segments
T4 sequence (P35348 1-466): T1 sequence (P35348 1-466)

α1A-adrenergic receptor = target: T5, α1A-adrenergic receptor (Homo sapiens, UniProt P35348); conditions: α1A subtype; cited from earlier work
T5 sequence (P35348 1-466): T1 sequence (P35348 1-466)

α1L-adrenergic receptor = conditions: α1L subtype; cited from earlier work
α1D-adrenergic receptor = target: T6, α1D-adrenergic receptor (Homo sapiens, UniProt P25100); conditions: α1D subtype; cited from earlier work
T6 sequence (P25100 1-572): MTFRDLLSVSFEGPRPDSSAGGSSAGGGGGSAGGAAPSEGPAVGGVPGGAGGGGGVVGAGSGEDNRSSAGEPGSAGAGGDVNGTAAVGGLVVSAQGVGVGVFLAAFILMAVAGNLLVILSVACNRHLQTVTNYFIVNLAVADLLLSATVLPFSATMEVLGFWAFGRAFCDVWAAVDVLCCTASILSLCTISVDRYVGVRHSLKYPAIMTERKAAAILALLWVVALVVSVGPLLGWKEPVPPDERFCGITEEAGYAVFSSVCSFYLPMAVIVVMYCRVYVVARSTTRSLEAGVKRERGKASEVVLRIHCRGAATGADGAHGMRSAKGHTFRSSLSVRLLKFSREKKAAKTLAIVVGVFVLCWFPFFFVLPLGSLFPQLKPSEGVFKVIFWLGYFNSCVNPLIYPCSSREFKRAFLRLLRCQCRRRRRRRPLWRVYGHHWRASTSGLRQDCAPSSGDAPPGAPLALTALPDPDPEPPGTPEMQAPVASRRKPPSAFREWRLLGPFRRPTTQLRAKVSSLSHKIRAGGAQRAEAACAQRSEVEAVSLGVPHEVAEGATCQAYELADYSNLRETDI

| sensitivity of receptors in α1L cells (in words) ([1]; α1L cells) | Compound | Affinity (pKb) (α1B-adrenergic receptor) | Ki [1] [nM] | Ki [2] [nM] | Ki [3] [nM] | Affinity (pKb) (α1A-adrenergic receptor) | Affinity (pKb) (α1L-adrenergic receptor) | Affinity (pKb) (α1D-adrenergic receptor) | maximum binding amount (Bmax) ([1]; α1L cells, saturation binding, 30 to 1000 pM) [fmol/mg protein] | Kd ([1]; α1L cells, saturation binding, whole-cell method) [nM] | Kd ([2]; α1A cells, whole-cell method, read-out: pKD (dissociation equilibrium constant from saturation binding curve) (converted)) [nM] | Kd ([3]; human prostate tissue segments, read-out: pKD (dissociation equilibrium constant from saturation binding curve) (converted)) [nM] |
| --- | --- | --- | --- | --- | --- | --- | --- | --- | --- | --- | --- | --- |
| only low sensitivity | COc1ccccc1N1CCN(CCN2C(=O)CC3(CCCC3)CC2=O)CC1.Cl.Cl [BMY 7378, 8-[2-[4-(2-methoxyphenyl)-1-piperazinyl]ethyl]8-azaspiro[4,5]decane7,9-dione dihydrochloride] | 7.4 |  |  |  |  |  |  |  |  |  |  |
|  | C[C@H](Cc1cc2c(c(C(N)=O)c1)N(CCCO)CC2)NCCOc1ccccc1OCC(F)(F)F [[^3H]-silodosin] |  |  |  |  |  |  |  | 134 | 0.843 | 0.2 | 0.316 |
|  | C[C@H](Cc1cc2c(c(C(N)=O)c1)N(CCCO)CC2)NCCOc1ccccc1OCC(F)(F)F [silodosin] | 8.1 |  |  |  | 10.7-9.5 | 10.7-9.5 | 8.6 |  |  |  |  |
| high sensitivity | CCOc1ccccc1OCCN[C@H](C)Cc1ccc(OC)c(S(N)(=O)=O)c1 [tamsulosin] | 9.3 |  |  |  |  |  | 9.9 |  |  |  |  |

| Compound | sensitivity of receptors in α1L cells (in words) ([1]; α1L cells) | Affinity (pKb) (α1B-adrenergic receptor) | Ki [1] [nM] | Ki [2] [nM] | Ki [3] [nM] | Affinity (pKb) (α1A-adrenergic receptor) | Affinity (pKb) (α1L-adrenergic receptor) | Affinity (pKb) (α1D-adrenergic receptor) | maximum binding amount (Bmax) ([1]; α1L cells, saturation binding, 30 to 1000 pM) [fmol/mg protein] | Kd ([1]; α1L cells, saturation binding, whole-cell method) [nM] | Kd ([2]; α1A cells, whole-cell method, read-out: pKD (dissociation equilibrium constant from saturation binding curve) (converted)) [nM] | Kd ([3]; human prostate tissue segments, read-out: pKD (dissociation equilibrium constant from saturation binding curve) (converted)) [nM] |
| --- | --- | --- | --- | --- | --- | --- | --- | --- | --- | --- | --- | --- |
| CC(C)(Cc1c[nH]c2ccc(Cl)cc12)NCCOc1ccccc1OCC1CC1.Cl [RS-17053, N-[2-(2-cyclopropylmethoxyphenoxy)ethyl]-5-chloro-α,α-dimethyl-1H-indole-3-ethanamine hydrochloride] | low in sensitivity | 7.8 | > 1000 | 1.58 | 251 | 9.1-8.4 | 6.3 | 7.8 |  |  |  |  |
